Structures can show the parent of a compound that is named as a salt.
Tested on: HCT116 cells
Assay: HCT116 cytotoxic activity assay (Alamar Blue, 72 h)
Assay type: cell-based
Conditions: Homo sapiens, HCT-116, 72 h compound exposure
Protocol: Representative compounds of this invention were tested for cytotoxicity using the above-described assay procedure with the following results: […]

[1] = greater than 500 nM but less than or equal to 2 μM

Row | SMILES | IC50 (less than or equal to 500 nM) [nM] | also measured
1 | Nc1nc(Nc2ccc(Oc3ccnc(C(F)(F)F)c3)cc2)cc(-c2ccccc2OC(F)(F)F)n1 [Example 161, 6-[2-(trifluoromethoxy)phenyl]-N4*-(4-{[2-(trifluoromethyl)pyridin-4-yl]oxy}phenyl)pyrimidine-2,4-diamine] | ≤ 500 | –
2 | CC(C)c1ccccc1-c1cc(Nc2ccc(Oc3ccnc(C(F)(F)F)c3)cc2)nc(N)n1 [Example 162, 6-(2-isopropylphenyl)-N4*- (4-{[2-(trifluoromethyl)pyridin-4-yl]oxy}phenyl) pyrimidine-2,4-diamine] | ≤ 500 | –
3 | CCc1ccccc1-c1cc(Nc2ccc(Oc3ccnc(CN)c3)cc2)nc(N)n1 [Example 163, N4*-(4-{[2-(aminomethyl)pyridin-4-yl]oxy}phenyl)-6-(2-ethylphenyl)pyrimidine-2,4-diamine] | ≤ 500 | –
4 | Nc1ccc(-c2cc(Nc3ccc(Oc4ccnc(C(F)(F)F)c4)cc3)nc(N)n2)cc1 [Example 164, 6-(4-aminophenyl)-N4*-(4-{[2-(trifluoromethyl)pyridin-4-yl]oxy}phenyl) pyrimidine-2,4-diamine hydrochloride] | ≤ 500 | –
5 | COc1cc(-c2cc(Nc3ccc(Oc4ccnc(C(F)(F)F)c4)cc3)nc(N)n2)ccc1O [Example 166, 4-{2-amino-6-[(4-{[2-(trifluoromethyl)pyridin-4-yl]oxy}phenyl)amino]pyrimidin-4-yl}-2-methoxyphenol] | ≤ 500 | –
6 | Nc1nc(Nc2ccc(Oc3ccnc(C(F)(F)F)c3)cc2)cc(-c2cccc(O)c2)n1 [Example 167, 3-{2-amino-6-[(4-{[2-(trifluoromethyl)pyridin-4-yl]oxy}phenyl)amino]pyrimidin-4-yl}phenol] | ≤ 500 | –
7 | COc1ccc(-c2cc(Nc3ccc(Oc4ccnc(C(F)(F)F)c4)cc3)nc(N)n2)cc1N [Example 168, 6-(3-amino-4-methoxyphenyl)-N4*-(4-{[2-(trifluoromethyl)pyridin-4-yl]oxy}phenyl) pyrimidine-2,4-diamine] | ≤ 500 | –
8 | Nc1cccc(-c2cc(Nc3ccc(Oc4ccnc(C(F)(F)F)c4)cc3)nc(N)n2)c1 [Example 170, 6-(3-aminophenyl)-N4*-(4-{[2-(trifluoromethyl)pyridin-4-yl]oxy}phenyl) pyrimidine-2,4-diamine hydrochloride] | ≤ 500 | –
9 | COc1cc(-c2cc(Nc3ccc(Oc4ccnc(C#N)c4)cc3)nc(N)n2)ccc1O [Example 171, 4-(4-{[2-amino-6-(4-hydroxy-3-methoxyphenyl)pyrimidin-4-yl]amino}phenoxy)pyridine-2-carbonitrile] | ≤ 500 | –
10 | COc1ccc(-c2cc(Nc3ccc(Oc4ccnc(C#N)c4)cc3)nc(N)n2)cc1N [Example 172, 4-(4-{[2-amino-6-(3-amino-4-methoxyphenyl)pyrimidin-4-yl]amino}phenoxy)pyridine-2-carbonitrile] | – | IC50 [1]: 500 to 2000 nM
11 | COc1cc(-c2cc(Nc3ccc(Oc4ccnc(C(N)=O)c4)cc3)nc(N)n2)ccc1N [Example 173, 4-(4-{[2-amino-6-(4-amino-3-methoxyphenyl)pyrimidin-4-yl]amino}phenoxy)pyridine-2-carboxamide] | ≤ 500 | –
12 | Cc1cc(O)ccc1-c1cc(Nc2ccc(Oc3ccnc(C(F)(F)F)c3)cc2)nc(N)n1 [Example 174, 4-{2-amino-6-[(4-{[2-(trifluoromethyl)pyridin-4-yl]oxy}phenyl)amino]pyrimidin-4-yl}-3-methylphenol] | ≤ 500 | –
13 | Nc1nc(Nc2ccc(Oc3ccnc(C(F)(F)F)c3)cc2)cc(-c2ccccc2CO)n1 [Example 175, (2-{2-amino-6-[(4-{[2-(trifluoromethyl)pyridin-4-yl]oxy}phenyl)amino]pyrimidin-4-yl}phenyl) methanol] | ≤ 500 | –
14 | Nc1nc(Nc2ccc(Oc3ccnc(C(F)(F)F)c3)cc2)cc(-c2ccc(O)cc2C(F)(F)F)n1 [Example 176, 4-{2-amino-6-[(4-{[2-(trifluoromethyl)pyridin-4-yl]oxy}phenyl)amino]pyrimidin-4-yl}-3-(trifluoromethyl)phenol] | – | IC50 [1]: 500 to 2000 nM
15 | Nc1nc(Nc2ccc(Oc3ccnc(C(F)(F)F)c3)cc2)cc(-c2ccc(N)c(F)c2)n1 [Example 177, 6-(4-amino-3-fluorophenyl)-N4*-(4-{[2-(trifluoromethyl)pyridin-4-yl]oxy}phenyl)pyrimidine-2,4-diamine] | ≤ 500 | –
16 | COc1cc(-c2cc(Nc3ccc(Oc4ccnc(C#N)c4)cc3)nc(N)n2)ccc1NC(=O)OC(C)(C)C [Example 178, tert-butyl {4-[2-amino-6-({4-[(2-cyanopyridin-4-yl)oxy]phenyl}amino)pyrimidin-4-yl]-2-methoxyphenyl}carbamate] | – | IC50 (greater than 2 μM): > 2000 nM
17 | Cc1cc(-c2cc(Nc3ccc(Oc4ccnc(C(F)(F)F)c4)cc3)nc(N)n2)ccc1N [Example 180, 6-(4-amino-3-methylphenyl)-N4*-(4-{[2-(trifluoromethyl)pyridin-4-yl]oxy}phenyl)pyrimidine-2,4-diamine] | ≤ 500 | –
18 | Nc1ccc(-c2cc(Nc3ccc(Oc4ccnc(C(F)(F)F)c4)cc3)nc(N)n2)cn1 [Example 181, 6-(6-aminopyridin-3-yl)-N4*-(4-{[2-(trifluoromethyl)pyridin-4-yl]oxy}phenyl)pyrimidine-2,4-diamine] | ≤ 500 | –
19 | N#Cc1cc(Oc2ccc(Nc3cc(-c4ccc(N)nc4)nc(N)n3)cc2)ccn1 [Example 183, 4-(4-{[2-amino-6-(6-aminopyridin-3-yl)pyrimidin-4-yl]amino}phenoxy)pyridine-2-carbonitrile] | ≤ 500 | –
20 | COc1cc(-c2cc(Nc3ccc(Oc4ccnc(C(F)(F)F)c4)cc3)nc(N)n2)ccc1OS(N)(=O)=O [Example 185, 4-{2-amino-6-[(4-{[2-(trifluoromethyl)pyridin-4-yl]oxy}phenyl)amino]pyrimidin-4-yl}-2-methoxyphenyl sulfamate] | ≤ 500 | –
21 | Nc1nc(Nc2ccc(Oc3ccnc(C(F)(F)F)c3)cc2)cc(-c2ccc(-c3ccccc3)cc2)n1 [Example 187, 6-biphenyl-4-yl-N4*-(4-{[2-(trifluoromethyl)pyridin-4-yl]oxy}phenyl) pyrimidine-2,4-diamine] | ≤ 500 | –
22 | Nc1nc(Nc2ccc(Oc3ccnc(C(F)(F)F)c3)cc2)cc(-c2cccs2)n1 [Example 188, 6-(2-thienyl)-N4*-(4-{[2-(trifluoromethyl)pyridin-4-yl]oxy}phenyl)pyrimidine-2,4-diamine] | ≤ 500 | –
23 | COc1ccc(-c2cc(Nc3ccc(Oc4ccnc(C(F)(F)F)c4)cc3)nc(N)n2)cc1OC [Example 189, 6-(3,4-dimethoxyphenyl)-N4*-(4-{[2-(trifluoromethyl)pyridin-4-yl]oxy}phenyl)pyrimidine-2,4-diamine] | – | IC50 [1]: 500 to 2000 nM
24 | COc1ccc(-c2cc(Nc3ccc(Oc4ccnc(C(F)(F)F)c4)cc3)nc(N)n2)cc1 [Example 190, 6-(4-methoxyphenyl)-N4*-(4-{[2-(trifluoromethyl)pyridin-4-yl]oxy}phenyl)pyrimidine-2,4-diamine] | ≤ 500 | –
25 | COc1ccc(-c2cc(Nc3ccc(Oc4ccnc(C(F)(F)F)c4)cc3)nc(N)n2)cn1 [Example 191, 6-(6-methoxypyridin-3-yl)-N4*-(4-{[2-(trifluoromethyl)pyridin-4-yl]oxy}phenyl)pyrimidine-2,4-diamine] | ≤ 500 | –
26 | Nc1nc(Nc2ccc(Oc3ccnc(C(F)(F)F)c3)cc2)cc(-c2cccc(F)c2)n1 [Example 192, 6-(3-fluorophenyl)-N4*-(4-{[2-(trifluoromethyl)pyridin-4-yl]oxy}phenyl)pyrimidine-2,4-diamine] | ≤ 500 | –
